Experimental data taken from ChEMBL document CHEMBL4602730, “In Vitro and in Vivo Evaluation of Membrane-Active Flavone Amphiphiles: Semisynthetic Kaempferol-Derived Antimicrobials against Drug-Resistant Gram-Positive Bacteria” (J Med Chem, 2020).
In brackets after ≈: the same amount, converted by molar mass. Activity calls are given as the source filed them. No cut-off for these calls is given here.

Tests used:
[1] = tested on: Staphylococcus aureus; assay: Antibacterial activity against methicillin-resistant Staphylococcus aureus N315 assessed as inhibition of bacterial growth incubated for 24 hrs by broth microdilution method; format: functional; conditions: N315, 24 h
[2] = Induction of hemolysis in rabbit RBC incubated for 1 hr; format: cell-based, Oryctolagus cuniculus, Erythrocyte; conditions: rabbit red blood cells (erythrocytes)
[3] = tested on: Staphylococcus aureus; assay: Antibacterial activity against methicillin-resistant Staphylococcus aureus NCTC 10442 assessed as inhibition of bacterial growth incubated for 24 hrs by broth microdilution method; format: functional; conditions: NCTC 10442, 24 h
[4] = tested on: Staphylococcus aureus; assay: Antibacterial activity against Staphylococcus aureus ATCC 29213 assessed as inhibition of bacterial growth incubated for 24 hrs by broth microdilution method; format: functional; conditions: ATCC 29213, 24 h
[5] = tested on: Staphylococcus aureus; assay: Antibacterial activity against Staphylococcus aureus ATCC 29213 infected in C57BL6 mouse assessed as reduction in bacterial count at 0.5% treated topically 4 times per day for 3 days starting from 1 day after infection relative to control; format: functional
[6] = tested on: Staphylococcus aureus; assay: Antibacterial activity against Staphylococcus aureus ATCC 29213 assessed as suppression of bacterial re-growth at 4 to 8 times MIC incubated for 0.5 to 24 hrs followed by re-plating of cultures and measured after 24 hrs by time kill study relative to control; format: functional, organism-based
[7] = tested on: Staphylococcus aureus; assay: Induction of cytoplasmic membrane permeabilization in methicillin-resistant Staphylococcus aureus NCTC 10442 at 1 to 8 times MIC by SYTOX green dye based fluorescence assay; format: functional, organism-based
[8] = tested on: Staphylococcus aureus; assay: Induction of bacterial cell membrane integrity loss in Staphylococcus aureus ATCC 29213 incubated for 2 hrs propidium iodide and SYTO9 dye based LIVE/DEAD bacterial viability assay; format: functional, organism-based
[9] = tested on: Staphylococcus aureus; assay: Antibacterial activity against Staphylococcus aureus ATCC 29213 assessed as bacterial cell killing at 4 times MIC incubated for 1 hrs followed by re-plating of cultures and measured after 24 hrs by time kill study relative to control; format: functional
[10] = tested on: Staphylococcus aureus; assay: Antibacterial activity against Staphylococcus aureus ATCC 29213 assessed as induction of bacterial killing at 8 times MIC incubated for 0.5 hrs followed by re-plating of cultures and measured after 24 hrs by time kill study relative to control; format: functional
[11] = Cytotoxicity in mouse corneal epithelial cells assessed as cell viability at 32 times MIC incubated for 24 hrs by CCK8 assay relative to control; format: cell-based; conditions: read-out: Activity
[12] = Cytotoxicity in human MDA-MB-231 cells assessed as cell viability at 32 times MIC incubated for 24 hrs by CCK8 assay relative to control; format: cell-based; conditions: read-out: Activity
[13] = tested on: Staphylococcus aureus; assay: Induction of cell surface disruption in Staphylococcus aureus ATCC 29213 at 8 times MIC incubated for 2 hrs by scanning electron microscopy; format: functional, organism-based
[14] = tested on: Pseudomonas aeruginosa; assay: Antibacterial activity against Pseudomonas aeruginosa assessed as inhibition of bacterial growth incubated for 24 hrs by broth microdilution method; format: functional
[15] = tested on: Staphylococcus aureus; assay: Antibacterial activity against Staphylococcus aureus ATCC 29213 assessed as induction of bacterial killing at 4 times MIC incubated for 1 hrs followed by re-plating of cultures and measured after 24 hrs by time kill study relative to control; format: functional
[16] = Cytotoxicity in human MDA-MB-231 cells assessed as reduction in cell viability incubated for 24 hrs by CCK8 assay; format: cell-based
[17] = tested on: Staphylococcus aureus; assay: Resistance index, ratio of MIC for antibacterial activity against Staphylococcus aureus ATCC 29213 passed over 19 cycles in presence of compound for period of 19 consecutive days by broth microdilution method to MIC for antibacterial activity against Staphylococcus aureus ATCC 29213; format: functional
[18] = tested on: Escherichia coli; assay: Antibacterial activity against Escherichia coli assessed as inhibition of bacterial growth incubated for 24 hrs by broth microdilution method; format: functional
[19] = tested on: Staphylococcus aureus; assay: Induction of cytoplasmic membrane permeabilization in Staphylococcus aureus ATCC 29213 at 1 to 8 times MIC by SYTOX green dye based fluorescence assay; format: functional, organism-based

Compound | MIC [1] [µM] | HC50 at 1 h [2] [µM] | MIC [3] [µM] | MIC [4] [µM] | further results
CC(C)=CCOc1ccc(-c2oc3cc(OCC=C(C)C)cc(O)c3c(=O)c2OCCCN2CCN(C)CC2)cc1 | 11.1 (≈ 6.25 µg/mL) | 83.3 | 22.2 (≈ 12.5 µg/mL) | 22.2 (≈ 12.5 µg/mL) | –
CC(C)=CCOc1ccc(-c2oc3cc(OCC=C(C)C)cc(O)c3c(=O)c2OCC(=O)N[C@@H](CCCNC(=N)N)C(=O)NCCCN(C)C)cc1 | 8.7 (≈ 6.27 µg/mL) | 131 | 8.7 (≈ 6.27 µg/mL) | 8.7 (≈ 6.27 µg/mL) | –
CCN(CC)CCCCCOc1c(-c2ccc(OCC=C(C)C)cc2)oc2cc(OCC=C(C)C)cc(O)c2c1=O | 22.2 (≈ 12.5 µg/mL) | 99 | 22.2 (≈ 12.5 µg/mL) | 22.2 (≈ 12.5 µg/mL) | –
COC(=O)[C@H](Cc1c[nH]cn1)NC(=O)COc1c(-c2ccc(OCC=C(C)C)cc2)oc2cc(OCC=C(C)C)cc(O)c2c1=O | > 79.2 | > 317 | > 79.2 | > 79.2 | –
CCN(CC)CCCOc1c(-c2ccc(OCC=C(C)C)cc2)oc2cc(OCC=C(C)C)cc(O)c2c1=O | 5.8 (≈ 3.11 µg/mL) | 59.9 | 5.8 (≈ 3.11 µg/mL) | 5.8 (≈ 3.11 µg/mL) | –
CC(C)=CCOc1ccc(-c2oc3cc(OCC=C(C)C)cc(O)c3c(=O)c2OCCC[N+](C)(C)C)cc1 | 2.4 | 77.3 | 4.8 | 4.8 | –
COC(=O)[C@H](CCCNC(=N)N)NC(=O)COc1c(-c2ccc(OCC=C(C)C)cc2)oc2cc(OCC=C(C)C)cc(OCC(=O)N[C@@H](CCCNC(=N)N)C(=O)OC)c2c1=O | 1.8 (≈ 1.58 µg/mL) | > 228 | 1.8 (≈ 1.58 µg/mL) | 1.8 (≈ 1.58 µg/mL) | Activity [5]: 3.28 log10CFU; Activity [6]: Active; Activity [7]: Active; Activity [8]: Active; Activity [9]: >=99.9%; LCK [10]: 3.22; viability at 24 h, 32 times MIC [11]: 70.1%; viability at 24 h, 32 times MIC [12]: 75%; Activity [13]: Active; MIC [14]: 12.5 to 25 µg/mL (≈ 14.2 to 28.4 µM); LCK [15]: 3.21; CC50 at 24 h [16]: > 50 µg/mL; Ratio [17]: <=4; MIC [18]: 12.5 to 25 µg/mL (≈ 14.2 to 28.4 µM); Activity [19]: Active
CCCOc1ccc(-c2oc3cc(OCCC)cc(O)c3c(=O)c2OCCCN(CC)CC)cc1 | 12.9 (≈ 6.24 µg/mL) | 121 | 12.9 (≈ 6.24 µg/mL) | 12.9 (≈ 6.24 µg/mL) | –
CC(C)=CCOc1ccc(-c2oc3cc(OCC=C(C)C)cc(O)c3c(=O)c2O)cc1 | > 118 | > 473 | > 118 | > 118 | –
CC[N+](C)(CC)CCCOc1c(-c2ccc(OCC=C(C)C)cc2)oc2cc(OCC=C(C)C)cc(O)c2c1=O | 2.3 | 88.2 | 4.6 | 4.6 | –
CCN(CC)CCCCOc1c(-c2ccc(OCC=C(C)C)cc2)oc2cc(OCC=C(C)C)cc(O)c2c1=O | 5.7 (≈ 3.13 µg/mL) | 32.2 | 5.7 (≈ 3.13 µg/mL) | 5.7 (≈ 3.13 µg/mL) | –
CCCCCCCCCOc1ccc(-c2oc3cc(OCCCCCCCCC)cc(O)c3c(=O)c2OCCCN(CC)CC)cc1 | > 76.7 | > 307 | > 76.7 | > 76.7 | –
CCCCCNCCCOc1c(-c2ccc(OCC=C(C)C)cc2)oc2cc(OCC=C(C)C)cc(O)c2c1=O | 11.4 (≈ 6.27 µg/mL) | 69.7 | 22.7 (≈ 12.5 µg/mL) | 45.5 (≈ 25 µg/mL) | –
CCCOc1ccc(-c2oc3cc(OCCC)cc(O)c3c(=O)c2O)cc1 | > 135 | > 540 | > 135 | > 135 | –
CCCCCCCCNCCCOc1c(-c2ccc(OCC=C(C)C)cc2)oc2cc(OCC=C(C)C)cc(O)c2c1=O | 21.1 (≈ 12.5 µg/mL) | > 338 | > 84.5 | > 84.5 | –
CC(C)=CCOc1ccc(-c2oc3cc(OCC=C(C)C)cc(O)c3c(=O)c2OCCCN(C)C)cc1 | 12.3 (≈ 6.24 µg/mL) | 228 | 12.3 (≈ 6.24 µg/mL) | 12.3 (≈ 6.24 µg/mL) | –
CCN(CC)CCCNC(=O)COc1c(-c2ccc(OCC=C(C)C)cc2)oc2cc(OCC=C(C)C)cc(O)c2c1=O | 10.5 (≈ 6.22 µg/mL) | 80.3 | 21.1 (≈ 12.5 µg/mL) | 10.5 (≈ 6.22 µg/mL) | –
O=c1c(O)c(-c2ccc(O)cc2)oc2cc(O)cc(O)c12 [KAEMPFEROL] | > 175 | – | > 175 | > 175 | –
CCCCCOc1ccc(-c2oc3cc(OCCCCC)cc(O)c3c(=O)c2OCCCN(CC)CC)cc1 | 11.6 (≈ 6.26 µg/mL) | 284 | 23.2 (≈ 12.5 µg/mL) | 11.6 (≈ 6.26 µg/mL) | –
